Where two headings read alike, the source gives them in different places.
Tests used:
[1] = Plasma concentration of tradipitant 2 hours post-dose in dogs; type: in vivo; details: male, beagle, dog, oral, read-out: Concentration of tradipitant in plasma, Mean (SD)
Method: (§1) All animals are dosed over a period of five (5) weeks, with each dog receiving one of five different treatments on each day of dosing. […] In cases where apomorphine is administered alone, without prior treatment with tradipitant or aprepitant, apomorphine is given at approximately the same time as when given in combination with tradipitant or aprepitant.

NK-3 receptor = molecular target: T1, NK-3 receptor (Homo sapiens, UniProt P29371); test: NK-3 receptor inhibition; type: binding
T1 sequence (P29371 1-465): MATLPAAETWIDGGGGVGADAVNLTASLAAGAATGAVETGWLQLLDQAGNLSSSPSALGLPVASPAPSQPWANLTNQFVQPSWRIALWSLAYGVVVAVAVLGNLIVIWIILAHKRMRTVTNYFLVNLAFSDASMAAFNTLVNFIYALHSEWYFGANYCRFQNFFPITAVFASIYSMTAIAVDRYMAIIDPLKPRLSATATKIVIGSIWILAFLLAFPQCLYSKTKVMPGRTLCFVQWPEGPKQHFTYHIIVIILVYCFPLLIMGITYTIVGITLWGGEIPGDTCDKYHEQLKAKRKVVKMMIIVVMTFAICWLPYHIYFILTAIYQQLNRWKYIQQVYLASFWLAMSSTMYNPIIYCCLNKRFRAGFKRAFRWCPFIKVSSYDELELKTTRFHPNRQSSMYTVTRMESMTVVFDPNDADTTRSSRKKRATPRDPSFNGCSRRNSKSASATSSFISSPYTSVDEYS

[2] = system: panel of 74 other receptors, enzymes, and ion channels; test: Binding panel of 74 other receptors, enzymes and ion channels
[3] = system: NK-1 agonist (GR73632)-induced vocalization; test: GR73632-induced vocalization in guinea pigs; type: in vivo, guinea pig
Method: Male Dunkin/Hartley guinea pigs (200 to 250 grams) are orally administered either vehicle or an NK-1 antagonist. Approximately 45 minutes later (for dose response studies), the animals are anesthetized and 0.1 nmol of GR73632 (SP analog) in a vehicle volume of 5 μl is injected into the cerebral ventricle at the intersection of bregma and the midline of the skull. Animals are placed in a dark testing chamber located inside of a sound attenuation cubicle and vocalizations are recorded for 30 minutes following recovery from anesthesia. The time spent vocalizing is quantified for each animal. In the duration of action study, 0.1 mg/kg of tradipitant or vehicle solution is administered orally and then 2, 4, or 7 hours later, 0.1 nmol of GR73632 is administered into the cerebral ventricle as described above. Vocalizations are recorded and quantified as indicated above. Vehicle solutions are either CMC (FIG. 4 data) or an ethanol/emulphor solution (FIGS. 5 and 6). Data is analyzed using one-tailed t-tests.

[4] = system: NK-1 agonist (GR73632)-induced foot-tapping behavior; test: NK-1 agonist (GR73632, icv)-induced foot-tapping behavior in gerbils; type: in vivo, Mongolian gerbil
Method: Immediately after injection, animals are placed individually into isolated chambers with pressure-sensitive velocimeter platform floors (San Diego Instruments acoustic startle apparatus) that detect and quantify vibration. The San Diego Instruments “SR” DOS-based computer program is used on a PC to record the number of foot-taps over the following 6 to 10 minutes, beginning 30 seconds after the floor is lightly tapped. Raw data are converted with a Microsoft® Excel® (Microsoft® and Excel® are registered trademarks of Microsoft Corp., Redmond, Wash.) macro that determines the number of events over threshold (125) in each 250-millisecond time bin over the 5.5 minutes following onset of observation. The total number and average intensity of events over the duration is determined. Total number of taps is analyzed with one-way ANOVA and post-hoc Dunnett's test using JMP statistical software. A dose-response curve (with doses of 0.3, 1, 3 and 10 pmols, icv) is initially generated with the NK-1 agonist GR73632. […] NK-1 antagonists are tested for their ability to attenuate GR73632-induced foot tapping. NK-1 antagonists are administered (po) via oral feeding tube at doses and time points specified in each experiment. All animals receive only one dose of NK-1 antagonists in all tests. NK-1 antagonists are administered at multiple doses (at least 3; one dose per animal) and response to GR73632 is measured. NK-1 receptor antagonists are administered at multiple pre-treatment times (one administration per animal) including at 0.5, 1, 2, 4, 7, 16, and 24 hours prior to GR73632 injection. GR73632 (Peninsula Labs, CA) is dissolved in saline. Tradipitant is dissolved in 1% CMC/0.5% SLS/0.085% PVP vehicle.

NK-1 receptor [5] = molecular target: T2, NK-1 receptor (Homo sapiens, UniProt P25103); test: SP-induced mobilization of intracellular calcium in U373 cells; type: cell-based; set-up: mobilization of intracellular calcium in U373 cells; endogenous in cells; host or cells: U373 cells
T2 sequence (P25103 whole entry): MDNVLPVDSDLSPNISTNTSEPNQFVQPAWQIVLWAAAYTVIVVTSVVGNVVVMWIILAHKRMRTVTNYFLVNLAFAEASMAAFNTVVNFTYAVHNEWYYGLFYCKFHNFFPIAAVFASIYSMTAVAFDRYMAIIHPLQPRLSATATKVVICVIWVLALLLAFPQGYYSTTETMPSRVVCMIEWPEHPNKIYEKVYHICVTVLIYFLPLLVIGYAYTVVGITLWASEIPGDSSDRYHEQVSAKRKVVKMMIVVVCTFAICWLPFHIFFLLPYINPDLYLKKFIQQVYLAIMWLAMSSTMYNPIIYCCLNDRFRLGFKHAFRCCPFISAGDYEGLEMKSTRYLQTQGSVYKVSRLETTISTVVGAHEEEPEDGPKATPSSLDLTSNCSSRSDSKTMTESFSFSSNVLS

NK-2 receptor = molecular target: T3, NK-2 receptor (Homo sapiens, UniProt P21452); test: NK-2 receptor inhibition; type: binding
T3 sequence (P21452 1-398): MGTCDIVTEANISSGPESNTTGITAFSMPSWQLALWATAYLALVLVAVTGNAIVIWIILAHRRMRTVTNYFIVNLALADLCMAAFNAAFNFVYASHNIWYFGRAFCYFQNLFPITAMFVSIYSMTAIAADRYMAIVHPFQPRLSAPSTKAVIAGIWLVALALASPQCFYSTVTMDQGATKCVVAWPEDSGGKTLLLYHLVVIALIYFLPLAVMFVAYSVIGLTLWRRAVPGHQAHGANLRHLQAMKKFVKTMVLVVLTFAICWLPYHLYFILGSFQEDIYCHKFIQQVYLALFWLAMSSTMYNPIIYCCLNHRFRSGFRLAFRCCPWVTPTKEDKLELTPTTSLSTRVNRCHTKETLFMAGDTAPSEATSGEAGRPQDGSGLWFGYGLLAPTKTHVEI

NK-1 receptor [6] = molecular target: T2, NK-1 receptor; test: [125I] substance P binding to the NK-1 receptor, IM-9 human cell membrane binding; set-up: NK-1 receptor expressed by IM-9 cells; endogenous in cells; host or cells: IM-9 human cells (membranes); details: Table 1
[7] = system: apomorphine-induced emesis; test: Emetic challenge study (apomorphine-induced emesis) in beagle dogs; type: in vivo, beagle dog; details: each dose tested (0.3, 1.0, and 3.0 mg/kg)
Method: Each animal is administered a different dose on a particular dosing day, so that each dose of tradipitant, aprepitant, and apomorphine alone is represented. Over the five (5) weeks of the study, each animal receives each of the treatments, but only one per week. The purpose of this study is to determine if tradipitant suppresses apomorphine-induced emesis.
as §1
All dogs are fasted overnight prior to each treatment day and then fed approximately one (1) hour after oral dosing (approximately one (1) hour prior to administration of apomorphine). Individual doses are adjusted weekly for changes in body weight.
The dose regimen consists of a 5×5 Latin square design, in which each subject receives 1 dose or dose combination per week (6 day washout) as shown in Table 3 below.

[8] = system: vomiting due to motion sickness; details: crossover study; cited from earlier work

In the case of `O=C(c1ccccc1Cl)c1cccnc1-c1nnn(Cc2cc(C(F)(F)F)cc(C(F)(F)F)c2)c1-c1ccncc1` [Tradipitant, {2-[1-(3,5-bistrifluoromethylbenzyl)-5-pyridin-4-yl-1H-[1,2,3]triazol-4-yl]-pyridin-3-yl}-(2-chlorophenyl)-methanone], the concentration at 2 h ([1]; 0.3 mg/kg, 0.3 mg/kg oral) is reported as 57.9 ng/mL, the concentration at 2 h ([1]; 1 mg/kg, 1.0 mg/kg oral) is reported as 133 ng/mL and the concentration at 2 h ([1]; 3 mg/kg, 3.0 mg/kg oral) is reported as 300 ng/mL. The “inhibition at the NK-3 receptor” value (NK-3 receptor) was “no significant inhibition”, the “activity in panel of 74 additional receptors, enzymes, and ion channels including NK-2 and NK-3 receptors” value [2] was “No significant activity” and the inhibition of binding ([2]; test concentration of 1 μM) was at most 50%. For the same molecule, the “suppression of agonist-induced vocalization at 7 hours” value ([3]; 0.1 mg/kg oral, 7 hours after administration) was “significantly active”, the duration of activity ([3]; administered orally) was “exceeds 7 hours” and the “inhibitory activity on vocalization at and below 0.1 mg/kg” value ([3]; at and below 0.1 mg/kg oral, FIG. 6) was “retains significant inhibitory activity”. The “inhibition of agonist-induced vocalization” value ([3]; oral doses of 10, 1.0, 0.1 and 0.05 mg/kg (each p<0.001), FIG. 4) was “significant inhibition”, the “minimum effective dose (MED), inhibition of vocalization” value ([3]; oral, p<0.001 compared to controls) was 0.025 mg/kg and the “time after administration up to which foot-tapping is significantly inhibited” value ([4]; 0.1 mg/kg, po) was “up to 7 hours”. The “effect on foot-tapping by 16 hours after administration” value ([4]; 0.1 mg/kg, po, 16 hours) was “significantly diminished”, the inhibition at 1 mg/kg ([4]; Meriones unguiculatus, po, 1 mg/kg, 16 hours after administration) was over 50% and the ED50 ([4]; Meriones unguiculatus, oral, 2 hours after administration, GR73632 3 pmol icv, read-out: ED50, inhibition of foot-tapping behavior) was 0.03 ± 0.004 mg/kg. For the same molecule, the Kb (NK-1 receptor [5]) was 0.095 nM, the “inhibition at the NK-2 receptor” value (NK-2 receptor) was “no significant inhibition” and the Ki (NK-1 receptor [6]) was 0.062 nM. The “efficacy against apomorphine-induced emesis” value [7] was “effective against apomorphine-induced emesis”.

In the case of `C[C@@H](O[C@H]1OCCN(Cc2n[nH]c(=O)[nH]2)[C@H]1c1ccc(F)cc1)c1cc(C(F)(F)F)cc(C(F)(F)F)c1` [Aprepitant, reference compound], the “time after administration up to which foot-tapping is inhibited” value ([4]; 1 mg/kg) is reported as “up to 24 hours”.

In the case of `COc1ccc(C(C)(C)C)cc1CN[C@H]1C2CCN(CC2)[C@H]1C(c1ccccc1)c1ccccc1` [Maropitant], the “dogs in which the occurrence of vomiting was reduced as compared to placebo” value [8] is listed as “over 75%”.

Source: patent US10821099B2, “Use of tradipitant in motion sickness” (Vanda Pharmaceuticals Inc., priority 2018, dated 2020)
